Data from patent US9045505B2, “Nitric oxide donors” (University of Otago, priority 2006, dated 2015).

Columns and labels:
[1] = system: endothelium-denuded rat small mesenteric artery; assay: Vasorelaxation of endothelium-denuded rat small mesenteric artery; conditions: logistic fit; for EC50: Rattus norvegicus, precontracted with methoxamine
Description: FIG. 17 is a graph showing vasorelaxation of endothelium-denuded rat small mesenteric artery preparations by MitoSNAP and SNAP. To measure vessel relaxation in endothelium-denuded rat mesenteric artery male Wistar rats (250-350 g) were anesthetized with sodium pentobarbitone (60 mg/kg ip Sagatal, Rhone Merieux, Harlow, Essex UK). The mesentery was removed and placed in ice-cold, gassed (95% O2/5% CO2) Krebs-Henseleit buffer. […] Vessels were maintained at 37° C. in Krebs-Henseleit solution containing indomethacin (10 μM) and bubbled with 95% O2/5% CO2 and were allowed to equilibrate under zero tension for 60 min. After equilibration vessels were normalized to a tension equivalent that generated at 90% of the diameter of the vessel at 100 mm Hg^3. Vessels were precontracted with methoxamine and then sequential cumulative additions of test compounds were made to relax the vessels shielded from direct light. Relaxation of muscle tone are expressed as a percentage of relaxation of the initial tone. Data are means of four determination of MitoNAP and MitoSNAP and of 6 for SNAP. Data from the dose-response curves were fitted to a logistic curve, with the following parameters: […]

Jurkat cells = assay: Respiration of Jurkat cells (O2 electrode); type: cell-based; conditions: 5 μM; for effect on respiration by Jurkat cells: 37° C.
Description: FIG. 10 is a series of traces and graphs showing the effect of MitoSNAP on respiration in cells. (a-d) Jurkat cells (55×10^6 cells) were incubated in PBS supplemented with 25 mM Hepes pH 7.2 (NaOH), 1 mM sodium pyruvate, 10 μM neocuproine and 100 μM DTPA in the stirred 2.5 ml chamber of an oxygen electrode at 37° C. with 5 μM MitoSNAP (a), MitoNAP (b), SNAP (c) or MitoSNAP and FCCP (500 nM) (d). Where indicated 5 μM OxyHb was added. Traces show typical experiments that were repeated at least three times. Sections of the 02 electrode trace where OxyHb was added for (a) and (b) have been expanded 4-fold in the vertical dimension to facilitate inspection. In all traces the dashed line indicates anaerobiosis. (e) Effect of MitoSNAP on O2 bioavailability in hypoxia. HeLa cells were incubated at 1% O2 concentration with 5% CO2 and the balance N2 for […] before the indicated treatments. Cellular pO2 values, measured by fluorescence quenching oximetry and expressed as mean±sd, are shown. (**p<0.001 compared to hypoxia alone and to MitoNAP treatments by ANOVA).
Cell culture. Cells were grown in medium supplemented with 10% fetal calf serum (FCS), penicillin (100 U.ml^−1) and streptomycin (100 μg.ml^−1) at 37° C. in a humidified atmosphere of 95% air/5% CO2. Jurkat cells were cultured in Roswell park memorial institute (RPMI) 1640 medium supplemented with 2 mM Glutamax and 25 mM Hepes. HeLa cells were grown in minimum essential eagle medium (MEM) containing 2 mM glutamine and non-essential amino acids and were grown to 100% confluence prior to use. […]
To evaluate the selective uptake of MitoSNAP by mitochondria within cells, the effect of MitoSNAP on respiration by Jurkat cells, a T lymphocyte cell line that grows in suspension, was measured using an O2 electrode (FIG. 10). […] Then the effects of a further 30 min incubation with MitoSNAP, MitoNAP or the mitochondrial inhibitor myxathiazol on the steady-state extracellular pO2 was assessed by fluorescence quenching oximetry (FIG. 10e).

Row | Structure (SMILES) | EC50 [1] | max. relaxation of induced tone [1] | slope function (Hill slope) [1] | effect on respiration by Jurkat cells (Jurkat cells) | time for which a low O2 concentration was maintained (Jurkat cells; low O2 concentrations)
1 | CC(=O)NC(C(=O)NCCCCC[P+](c1ccccc1)(c1ccccc1)c1ccccc1)C(C)(C)SN=O.CS(=O)(=O)[O-] (stereo not drawn) [MitoSNAP, [5-(2-acetylamino-3-methyl-3-nitrosothio-butyrylamino)-penty1]-triphenylphosphonium methanesulfonate] | 16.5 ± 1.1 nM | 96±1% | 1.3±0.1 | respiration rate decreased and approached zero | at least 30 min
2 | CC(=O)NC(C(=O)O)C(C)(C)SN=O (racemic) [SNAP, S-nitroso-N-acetyl-DL-penicillamine, reference compound] | 5.2 ± 0.5 nM | 92±2% | 1.0±0.1 | had no effect on respiration | 
